Laboratory results as given in US20160008366A1, “BTK INHIBITORS FOR THE TREATMENT OF CNS MALIGNANCIES” (Pharmacyclics LLC, priority 2014, published 2016).
Marks after values point to notes of the source that are not given here.

Experiments:
[1] = Quantification of PCI-32765 (ibrutinib) and its metabolite PCI-45227 in human cerebrospinal fluid samples of patient 01-001BF (LC-MS/MS); type: in vivo; settings: for observed in CSF samples: patient 01-001BF after 560 mg of ibrutinib daily; for Calculated Concentration in CSF: patient 01-001BF, ibrutinib 560 mg daily
Procedure: Samples were obtained from patient (01-001BF), a person with Waldenstrom's macroglobulinemia with amyloid and Bing-Neel syndrome.
Standards and QC sample preparation and data analysis were carried out using the methods described in Example 1. In brief, all samples and standards were prepared on ice. Internal standard (IS) was prepared by addition of d5-PCI-32765 and d5-PCI-45227 in 0.2% formic acid in 1:9 (v/v) water: ACN (acetonitrile).
A100 μL of either a sample or a standard was transferred into each well of a 96-well plate. To each well was added 20 μL of the internal standard solution. […] Next, the 96-well plate was capped and vortexed thoroughly and then centrifuged at 4000 rpm for at least 10 minutes at 4° C.
High performance liquid chromatography (HPLC) (Shimadzu Nexera X2 HPLC system) was coupled with an electrospray ionization triple quadrupole mass spectrometer (AB SCIEX API-6500), and an autosampler (CTC PAL Eksigent). Chromatographic separation was achieved using an XBridge™ Ethylene-Bridged Hybrid (BEH) C18 column, 3.5 μm (2.1×50 mm) (Waters), and a C 18 guard column (2×4 mm) (Phenomenex Security Guard). Mobile phase A was 0.1% formic acid in water and mobile phase B was 100% acetonitrile. In all conditions, the column temperature was at ambient, the autosampler temperature was at 4° C., and the injection volume was 10 μL. The diversion time from HPLC to MS was from 0.5 minutes to 2.5 minutes.
The mass spectrometer (MS) equipped with an ESI source, was operated at a source temperature of 700° C.

[2] = CSF and plasma concentration ratios for ibrutinib and PCI-45227, patient 01-001BF; type: in vivo, human; settings: ibrutinib 560 mg daily; for Kp: human, CSF/plasma, 560 mg daily
[3] = Adsorption test in human CSF to Nunc CryoTube vials; type: physicochemical; settings: incubated for 1 h on ice, Low and High QC
Description: These QC samples were kept in Nunc CryoTube vials for one hour. After an hour, each sample was vortex mixed and assayed against freshly prepared calibration standards. The obtained concentrations of the adsorption test QC samples were compared to the nominal values. The samples were considered to have no adsorption to the Nunc CryoTube vials if the mean value of the obtained concentrations was within 20% of the nominal concentration.

[4] = QC samples bench-top (ice) stability in human CSF; type: in vitro ADME; settings: nominal 0.500 ng/mL, on ice for 2 hours, n=6
[5] = QC samples freeze (−70° C.)/thaw (on ice) stability in human CSF; type: in vitro ADME; settings: nominal 0.500 ng/mL, 3 freeze/thaw cycles, n=6
Procedure: QC samples stored at −70° C., which were subjected to 3 freeze/thaw (ice) cycles, were measured against freshly prepared calibration standards.

[6] = Short-term storage stability in human CSF at −70±5° C.; type: in vitro ADME; settings: −70±5° C. for at least 7 days, n=6
[7] = cited from earlier work
[8] = Day 1, pre-dose (0 h), BQL = below quantification limit (0.3 ng/mL)

Row | Compound | observed in CSF samples [1] | Calculated Concentration in CSF ([1]; 1 Month, 3 h) [ng/mL] | Calculated Concentration in CSF ([1]; Day 1, 2 h) [ng/mL] | Calculated Concentration in CSF [1, 8] | Calculated Concentration in CSF ([1]; Day 1, pre-dose (0 h), BQL = below quantification limit (0.3 ng/mL), listed as Ibrutinib) | Kp ([2]; 1 Month, 3 h) | Kp ([2]; Day 1, 2 h) | adsorption to Nunc Cryo Tube vials [3] | % CSF/Plasma ([2]; 1 Month, 3 h) [%] | % CSF/Plasma ([2]; Day 1, 2 h) [%] | Bench-top QC Low Concentration, Mean [4] [ng/mL] | Bench-top QC Low, % Accuracy [4] [%] | F/T3 (−70° C.) Low QC, % Accuracy [5] [%] | F/T3 (−70° C.) Low QC, Mean [5] [ng/mL] | Intra-run QC Low, % Accuracy ([6]; nominal 0.500 ng/mL) [%] | Intra-run QC Low, Mean ([6]; nominal 0.500 ng/mL) [ng/mL] | Intra-run QC Mid, % Accuracy ([6]; nominal 5.00 ng/mL) [%] | Intra-run QC Mid, Mean ([6]; nominal 5.00 ng/mL) [ng/mL] | reported percentage of unbound of the compounds in plasma [7] [%]
1 | C=CC(=O)N1CCC[C@@H](n2nc(-c3ccc(Oc4ccccc4)cc3)c3c(N)ncnc32)C1 [PCI-32765, (R)-1-(3-(4-amino-3-(4-phenoxyphenyl)-1H-pyrazolo[3,4-d]pyrimidin-1-yl)piperidin-1-yl)prop-2-en-1-one] | observed | 7.19 | 15.0 | BQL | BQL^a | 0.035 | 0.03 | no adsorption |  |  |  |  |  |  |  |  |  |  | 
2 | Nc1ncnc2c1c(-c1ccc(Oc3ccccc3)cc1)nn2[C@@H]1CCCN(C(=O)C(O)CO)C1 (stereo partly drawn) [PCI-45227] | observed | 15.4 | 14.7 | BQL and BQL^a |  |  |  | no adsorption | 8.5 | 6.2 | 0.458 | 91.5 | 97.2 | 0.486 | 99.4 | 0.497 | 87.8 | 4.39 | 9
